According to PMC7047128, “The Putative TCP-1 Chaperonin Is an Important Player Involved in Sialic Acid-Dependent Host Cell Invasion by Toxoplasma gondii” (Frontiers in Microbiology, 2020):

Target: T1, TgTCP-1 (putative TCP-1 chaperonin, TGME49_318410) (Toxoplasma gondii, UniProt A0A125YLR8)
T1 construct: full-length CDS, aa 1-537, N-terminal GST tag kept (pGEX-4T-1), E. coli BL21 (DE3), about 85 kDa
Test: pull-down on sialic acid-agarose with competition by free sialic acid, anti-GST Western blot
Assay type: binding
Details: 1 uM GST-TgTCP-1; free sialic acid 0.001-100 mg/mL; PBS wash; 4 C

T1 sequence (A0A125YLR8 entry or part of it): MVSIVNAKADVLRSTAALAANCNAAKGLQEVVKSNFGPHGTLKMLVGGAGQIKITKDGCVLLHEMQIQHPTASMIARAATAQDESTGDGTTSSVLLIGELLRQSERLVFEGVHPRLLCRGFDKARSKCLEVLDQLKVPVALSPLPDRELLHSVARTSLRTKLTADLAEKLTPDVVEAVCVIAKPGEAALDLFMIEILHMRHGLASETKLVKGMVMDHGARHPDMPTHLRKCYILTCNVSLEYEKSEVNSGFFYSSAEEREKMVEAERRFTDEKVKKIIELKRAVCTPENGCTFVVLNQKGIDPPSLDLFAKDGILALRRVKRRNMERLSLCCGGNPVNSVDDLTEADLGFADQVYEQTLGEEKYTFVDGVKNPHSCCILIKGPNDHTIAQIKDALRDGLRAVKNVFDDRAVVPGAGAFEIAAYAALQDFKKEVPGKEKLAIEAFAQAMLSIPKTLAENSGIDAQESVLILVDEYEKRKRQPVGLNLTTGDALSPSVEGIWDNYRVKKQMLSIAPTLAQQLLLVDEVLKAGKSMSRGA

CC(=O)N[C@H]1[C@H]([C@H](O)[C@H](O)CO)OC(O)(C(=O)O)C[C@@H]1O (stereo partly shown) [sialic acid]
pull-down on sialic acid-agarose with competition by free sialic acid, anti-GST: binding of GST-TgTCP-1 to sialic acid-agarose was inhibited by sialic acid in a dose dependent manner
